Among the test systems are HT-29; A498; 786-0; EKVX; SK-MEL-5; OVCAR-5; ACHN; SK-MEL-2; UACC-257; HCC 2998; RPMI-8226; SNB-19; IGROV-1; HCT-15; NCI-H226; NCI/ADR-RES; MCF7; MDA-MB-231; Hs-578T.
What all share (assay): DTP human tumour cell line panel, 48 h

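Dose response: 5 concentrations. Exposure: 48 h. Format: 96-well plates. Endpoint: linear interpolation; highest concentration if not reached. The concentration for 50% growth inhibition is given as GI50.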 The source made the active and inactive calls. Rule as the data show it: active = GI50 up to about 1.1 µM and inactive = higher.

Take `N#CC1(Cc2ccccc2Cl)c2ccccc2C=CN1C(=O)c1ccccc1` (centres undefined): the GI50 in the assay on HT-29 was 75.5 µM (inactive); with A498, > 100 µM (inactive); with 786-0 it was > 100 µM (inactive); with EKVX it was > 100 µM (inactive); in the assay with SK-MEL-5, 47.4 µM (inactive); with OVCAR-5, > 100 µM (inactive). The GI50 is 90.8 µM (inactive) in the assay with ACHN; > 100 µM (inactive) with SK-MEL-2; 78.7 µM (inactive) with UACC-257; > 100 µM (inactive) in the assay on HCC 2998; 66.5 µM (inactive) with RPMI-8226; > 100 µM (inactive) in the assay on SNB-19. The figures for the GI50 with IGROV-1, in the assay with HCT-15 and with NCI-H226 were > 100 µM (inactive), 98.6 µM and > 100 µM (inactive), respectively.
As to `CCOC(=O)CC1C(C(=O)OCC)=Cn2c([nH]c3cccc4cccc2c43)=C1C(=O)OCC` (centres undefined), the GI50 in the assay on HT-29, in the assay with A498, in the assay with 786-0, in the assay with NCI/ADR-RES, with MCF7 and in the assay on EKVX was > 100 µM (inactive) throughout. For the same molecule, the GI50 in the assay with SK-MEL-5 was 33.7 µM (inactive); in the assay with OVCAR-5, > 100 µM (inactive); with ACHN, > 100 µM (inactive); with SK-MEL-2, > 100 µM (inactive); in the assay with UACC-257, > 100 µM (inactive); with HCC 2998 it was > 100 µM (inactive). The GI50 with RPMI-8226 is > 100 µM (inactive); in the assay on SNB-19, > 100 µM (inactive); with IGROV-1 it was > 100 µM (inactive); in the assay with HCT-15, over 100 µM; with NCI-H226, > 100 µM (inactive).
Take `O=c1sc2c(s1)SSSSS2`: the GI50 was 21.1 µM (inactive) with HT-29; > 50 µM (inactive) with A498; > 50 µM (inactive) in the assay with 786-0; > 50 µM (inactive) with NCI/ADR-RES; 31.1 µM (inactive) in the assay on MCF7; > 50 µM (inactive) with EKVX. The GI50 was > 50 µM (inactive) in the assay with SK-MEL-5; > 50 µM (inactive) with OVCAR-5; > 50 µM (inactive) in the assay on MDA-MB-231; > 50 µM (inactive) in the assay with ACHN; > 50 µM (inactive) with SK-MEL-2; 28.6 µM (inactive) with UACC-257. The GI50 in the assay with HCC 2998 is > 50 µM (inactive); in the assay with RPMI-8226, > 50 µM (inactive); in the assay on SNB-19, > 50 µM (inactive); in the assay with IGROV-1 it was > 50 µM (inactive); in the assay with HCT-15, over 50 µM; with NCI-H226 it was > 50 µM (inactive).
Regarding `O=C1C=Cc2c(I)sc(I)c21`, the GI50 in the assay on HT-29 was 23.9 µM (inactive); in the assay with A498, 48.5 µM (inactive); in the assay with 786-0, 10.3 µM (inactive); with NCI/ADR-RES, 23.3 µM (inactive); in the assay with MCF7 it was 18.4 µM (inactive); in the assay on EKVX, 26.1 µM (inactive). The GI50 with SK-MEL-5 was 74.5 µM (inactive); in the assay with OVCAR-5, 25.1 µM (inactive); with MDA-MB-231, 29.9 µM (inactive); in the assay on ACHN it was 36.6 µM (inactive); in the assay with SK-MEL-2, 20.1 µM (inactive); in the assay on UACC-257, 20 µM (inactive). The GI50 with HCC 2998 was 18.4 µM (inactive); with IGROV-1, 15.9 µM (inactive); with HCT-15, 17.3 µM; with NCI-H226, 31.3 µM (inactive).
`NC(=S)N/N=C1\CCCCc2ccccc21`: the GI50 with HT-29, in the assay with 786-0, in the assay with NCI/ADR-RES, in the assay with MCF7, in the assay on EKVX and in the assay on OVCAR-5 was > 10 µM (inactive) throughout. Moreover, the GI50 in the assay on ACHN, in the assay on SK-MEL-2, in the assay with UACC-257, in the assay with HCC 2998, in the assay with RPMI-8226 and in the assay with SNB-19 was > 10 µM (inactive) throughout. Besides, the GI50 in the assay on HCT-15 is over 10 µM; in the assay on NCI-H226, > 10 µM (inactive).
As to `CCOC(=O)Cc1ccc(Nc2nc3ccccc3nc2C(=O)OCC)cc1`, the GI50 is > 100 µM (inactive) in the assay on HT-29; 20.7 µM (inactive) in the assay with A498; 34 µM (inactive) in the assay with 786-0; 50.7 µM (inactive) with NCI/ADR-RES; 61.7 µM (inactive) with MCF7; 34.5 µM (inactive) in the assay with Hs-578T. For the same molecule, the GI50 in the assay on EKVX was 38.4 µM (inactive); in the assay with SK-MEL-5, 46.1 µM (inactive); with OVCAR-5, > 100 µM (inactive); in the assay on ACHN it was 53.5 µM (inactive); in the assay on SK-MEL-2 it was 94 µM (inactive); with UACC-257, > 100 µM (inactive). The GI50 in the assay on SNB-19 was 11.2 µM (inactive); with IGROV-1 it was 57.5 µM (inactive); in the assay with HCT-15 it was over 100 µM; in the assay with NCI-H226, 4.8 µM (inactive).
On to `O=S1(=O)OCCOS(=O)(=O)C1F`, for which the GI50 with HT-29, with 786-0, in the assay on NCI/ADR-RES, with MCF7, in the assay on Hs-578T and with EKVX was > 100 µM (inactive) throughout. The GI50 in the assay on SK-MEL-5, in the assay with OVCAR-5, with ACHN, in the assay with SK-MEL-2, in the assay with UACC-257 and with HCC 2998 was > 100 µM (inactive) each time. Besides, the GI50 is > 100 µM (inactive) in the assay on RPMI-8226, > 100 µM (inactive) in the assay with SNB-19, over 100 µM in the assay on HCT-15 and > 100 µM (inactive) with NCI-H226.
Consider `Cc1nc(=O)[nH]c2[nH][nH]c(=O)c12`, for which the GI50 with HT-29, in the assay with 786-0, in the assay on EKVX, in the assay on OVCAR-5, in the assay with ACHN and in the assay with SK-MEL-2 was > 100 µM (inactive) in each case. In addition, the GI50 with RPMI-8226 is > 100 µM (inactive); in the assay on IGROV-1 it was > 100 µM (inactive); with HCT-15, over 100 µM; in the assay on NCI-H226, > 100 µM (inactive).
`CCOC(=O)/C(=C/c1ccc(OC)cc1)N(CC)CC`: the GI50 in the assay on HT-29 was > 100 µM (inactive); with A498, 24.5 µM (inactive); in the assay with 786-0, > 100 µM (inactive); in the assay on EKVX, > 100 µM (inactive); in the assay with SK-MEL-5, > 100 µM (inactive); with OVCAR-5 it was > 100 µM (inactive). Moreover, the GI50 with ACHN, with SK-MEL-2, with UACC-257, in the assay on HCC 2998, in the assay with RPMI-8226 and in the assay on SNB-19 was > 100 µM (inactive) throughout. For the same molecule, the GI50 in the assay on IGROV-1 is > 100 µM (inactive); with HCT-15, over 100 µM; in the assay with NCI-H226 it was > 100 µM (inactive).
As for `COc1cc(/C=C/C(=O)OC[C@H](Br)[C@H](OC(C)=O)c2ccc3c(c2)OCO3)cc(OC)c1OC`, the GI50 in the assay with HT-29 was > 100 µM (inactive); in the assay on A498 it was > 100 µM (inactive); in the assay on 786-0, > 100 µM (inactive); in the assay on NCI/ADR-RES, 57.7 µM (inactive); in the assay with MCF7, > 100 µM (inactive); with EKVX it was > 100 µM (inactive). The GI50 with SK-MEL-5, in the assay on OVCAR-5, with MDA-MB-231, with ACHN, with SK-MEL-2 and in the assay on UACC-257 was > 100 µM (inactive) throughout. Moreover, the GI50 with HCC 2998 was 80.4 µM (inactive); in the assay with RPMI-8226, 61.1 µM (inactive); in the assay with SNB-19 it was > 100 µM (inactive); in the assay on IGROV-1, > 100 µM (inactive); in the assay with HCT-15, over 100 µM; with NCI-H226 it was > 100 µM (inactive).
In the case of `Cc1oc(N)c(S(=O)(=O)/C(C#N)=C/c2ccccc2[N+](=O)[O-])c1C`, the GI50 in the assay on HT-29 was 19.2 µM (inactive); in the assay on A498 it was 85.5 µM (inactive); with 786-0 it was 30.5 µM (inactive); in the assay with NCI/ADR-RES, 27.3 µM (inactive); in the assay on MCF7 it was 31.1 µM (inactive); in the assay on EKVX it was 33.7 µM (inactive). The GI50 in the assay on SK-MEL-5 was 19.2 µM (inactive); in the assay with OVCAR-5, 20.6 µM (inactive); in the assay on MDA-MB-231, 32.9 µM (inactive); in the assay on ACHN, 25.4 µM (inactive); with SK-MEL-2 it was 37.2 µM (inactive); in the assay with UACC-257 it was 32.2 µM (inactive). Moreover, the GI50 with HCC 2998 was 32.1 µM (inactive); in the assay with RPMI-8226 it was 27.9 µM (inactive); with SNB-19, 33.5 µM (inactive); in the assay with IGROV-1, 24.9 µM (inactive); with HCT-15 it was 26.5 µM; with NCI-H226 it was 58.3 µM (inactive).
Regarding `COc1cc(C2c3cc4c(cc3[C@@H](Nc3ccccc3)C3CO[C@@H](OC)[C@H]23)OCO4)cc(OC)c1O` (some centres undefined), the GI50 in the assay on HT-29 is 4.82 µM (inactive); with 786-0, 5.14 µM (inactive); with NCI/ADR-RES it was 14.6 µM (inactive); with MCF7, 4.5 µM (inactive); in the assay with Hs-578T, 3.21 µM (inactive); in the assay on EKVX it was 20.7 µM (inactive). The GI50 in the assay with SK-MEL-5 was 8.55 µM (inactive); with OVCAR-5, 6.07 µM (inactive); in the assay on ACHN it was 3.18 µM (inactive); in the assay on UACC-257, > 25 µM (inactive); in the assay on HCC 2998 it was 6.9 µM (inactive); with RPMI-8226, 3.01 µM (inactive). Further, the GI50 with SNB-19 was 6.07 µM (inactive); in the assay on IGROV-1, 20.9 µM (inactive); in the assay on HCT-15, 3.61 µM.
With `Cc1nn2c(N)cc(=O)nc2nc1/C=C/c1ccc(N(C)C)cc1`, the GI50 with HT-29 is 4.76 µM (inactive); with 786-0 it was > 28.8 µM (inactive); in the assay on NCI/ADR-RES it was > 100 µM (inactive); with MCF7 it was 3.92 µM (inactive); in the assay on Hs-578T, 6.84 µM (inactive); in the assay with EKVX it was 7.23 µM (inactive). The GI50 with SK-MEL-5 was 20.6 µM (inactive); with OVCAR-5, 17.5 µM (inactive); in the assay on ACHN, 18 µM (inactive); in the assay on SK-MEL-2 it was > 49.2 µM (inactive); with UACC-257 it was 17.3 µM (inactive); with HCC 2998, 3.18 µM (inactive). The GI50 with RPMI-8226 was 10.1 µM (inactive); with SNB-19, 29.9 µM (inactive); in the assay with IGROV-1 it was 16.6 µM (inactive); in the assay on NCI-H226, > 66.5 µM (inactive).

The values above are taken from ChEMBL document CHEMBL1201862, “PubChem BioAssay data set” (2004).
